# According to patent US20240173347A1, “COMPOSITIONS FOR RAISING NAD LEVELS AND METHODS AND USES THEREOF” (ACCURI, LLC, priority 2022, published 2024):
# System: intracellular NAD
# Test: Intracellular NAD levels in users before and after supplementation
# Assay type: in vivo, human
# Details: intravenous infusion, 5 sessions of 750 mg
smiles,measurement,value
"NC(=O)c1ccc[n+]([C@@H]2O[C@H](COP(=O)([O-])OP(=O)(O)OC[C@H]3O[C@@H](n4cnc5c(N)ncnc54)[C@H](O)[C@@H]3O)[C@@H](O)[C@H]2O)c1 [NAD+, Nicotinamide adenine dinucleotide]",Effect on intracellular NAD levels,does not increase
